Reference: ChEMBL document CHEMBL4414638, “Structure-Activity Relationship of Peptide-Conjugated Chloramphenicol for Inhibiting Escherichia coli” (J Med Chem, 2019)
Values after ≈ are worked out from the molar mass of the structure shown. Active and inactive are the calls of the source. No cut-off for these calls is given here. *1 amine or outer side, *2 acyl side, *3 side chain or, on linkers, in order; H or OH if unused. Where a SMILES comes first, the peptide text is derived from it. [ ]: non-standard residue; d: D form. The star is where a group is joined. X1 = O=C(CCC(=O)[*:2])OC[C@@H](N[*:1])[C@H](O)c1ccc([N+](=O)[O-])cc1; Dichloroacetyl = O=C(C(Cl)Cl)*

Experiments:
[1] = test system: Escherichia coli; assay: Antibacterial activity against Escherichia coli K-12 assessed as reduction in bacterial growth incubated for 16 hrs; type: functional; settings: K-12, 16 h
[2] = Cytotoxicity in human HS5 cells assessed as reduction in cell viability at 20 uM to 2 mM incubated up to […]rs relative to chloramphenicol; type: cell-based
[3] = test system: HEK293; assay: Cytotoxicity in human HEK293 cells assessed as reduction in cell viability at 20 uM […] relative to chloramphenicol; type: cell-based; settings: hek293, 20 µM
[4] = test system: Escherichia coli; assay: Antibacterial activity against Escherichia coli K-12 assessed as reduction in bacterial growth incubated for 16 hrs in presence of porcine liver esterase; type: functional; settings: K-12, 16 h
[5] = test system: Escherichia coli; assay: Antibacterial activity against Escherichia coli K-12 assessed as reduction in bacterial growth incubated for 16 hrs in absence of porcine liver esterase; type: functional; settings: K-12, 16 h
[6] = Drug metabolism in Escherichia coli K-12 lysates assessed as esterase-mediated drug hydrolysis at 200 uM incubated up to 24 hrs by HPLC analysis; type: ADME, subcellular, Lysate; settings: escherichia coli k-12, isolated protein
[7] = Drug metabolism in human HepG2 cells lysates assessed as esterase-mediated drug hydrolysis at 200 uM incubated up to 24 hrs by HPLC analysis; type: ADME, subcellular, Lysate; settings: hepg2, 24 h
[8] = Drug metabolism in Escherichia coli K-12 lysates assessed as esterase-mediated drug hydrolysis by measuring apparent first-order rate constant at 200 uM incubated up to 24 hrs by HPLC analysis; type: ADME, subcellular, Lysate; settings: escherichia coli k-12, isolated protein
[9] = test system: Escherichia coli; assay: Antibacterial activity against ydgR gene deficient Escherichia coli assessed as reduction in bacterial growth at 0.1 to 100 uM incubated for 16 hrs; type: functional, organism-based
[10] = test system: Escherichia coli; assay: Antibacterial activity against fepA gene deficient Escherichia coli assessed as reduction in bacterial growth at 0.1 to 100 uM incubated for 16 hrs; type: functional, organism-based
[11] = test system: Escherichia coli; assay: Antibacterial activity against ompF gene deficient Escherichia coli assessed as reduction in bacterial growth at 0.1 to 100 uM incubated for 16 hrs; type: functional, organism-based
[12] = test system: Escherichia coli; assay: Antibacterial activity against acrA gene deficient Escherichia coli assessed as reduction in bacterial cell viability at 0.1 to 100 uM incubated for 16 hrs relative to control; type: functional
[13] = test system: Escherichia coli; assay: Antibacterial activity against bioH gene deficient Escherichia coli assessed as reduction in bacterial growth at 0.1 to 100 uM incubated for 16 hrs; type: functional, organism-based
[14] = test system: Escherichia coli; assay: Antibacterial activity against yjfP gene deficient Escherichia coli assessed as reduction in bacterial growth at 0.1 to 100 uM incubated for 16 hrs; type: functional, organism-based
[15] = test system: Escherichia coli; assay: Antibacterial activity against frsA gene deficient Escherichia coli assessed as reduction in bacterial growth at 0.1 to 100 uM incubated for 16 hrs; type: functional, organism-based
[16] = test system: Escherichia coli; assay: Antibacterial activity against ybfF gene deficient Escherichia coli assessed as reduction in bacterial growth at 0.1 to 100 uM incubated for 16 hrs; type: functional, organism-based
[17] = test system: Escherichia coli; assay: Antibacterial activity against yfbB gene deficient Escherichia coli assessed as reduction in bacterial growth at 0.1 to 100 uM incubated for 16 hrs; type: functional, organism-based
[18] = test system: Escherichia coli; assay: Antibacterial activity against ypfH gene deficient Escherichia coli assessed as reduction in bacterial growth at 0.1 to 100 uM incubated for 16 hrs; type: functional, organism-based
[19] = test system: Escherichia coli; assay: Antibacterial activity against yeiG gene deficient Escherichia coli assessed as reduction in bacterial growth at 0.1 to 100 uM incubated for 16 hrs; type: functional, organism-based
[20] = test system: Escherichia coli; assay: Antibacterial activity against yqiA gene deficient Escherichia coli assessed as reduction in bacterial growth at 0.1 to 100 uM incubated for 16 hrs; type: functional, organism-based
[21] = Drug metabolism in human serum assessed as formation of chloramphenicol at 200 uM at 37 degC after 24 hrs by LC-MS analysis relative to control

| Structure (SMILES) | MIC [1] [µM] | Activity [2] | Activity [3] | other results |
| --- | --- | --- | --- | --- |
| CNC(=O)CNC(=O)CNC(=O)CCC(=O)OC[C@@H](NC(=O)C(Cl)Cl)[C@H](O)c1ccc([N+](=O)[O-])cc1 | 20 (≈ 11 µg/mL) | Non-Toxic | Toxic |  |
| NCCCC[C@@H](NC(=O)[C@@H](CCCCN)NC(=O)[C@@H](Cc1ccccc1)NC(=O)[C@@H](Cc1ccccc1)NC(=O)CCC(=O)OC[C@@H](NC(=O)C(Cl)Cl)[C@H](O)c1ccc([N+](=O)[O-])cc1)C(=O)O | 200 (≈ 195 µg/mL) |  |  |  |
| C[C@H](NC(=O)[C@H](C)NC(=O)CCC(=O)OC[C@@H](NC(=O)C(Cl)Cl)[C@H](O)c1ccc([N+](=O)[O-])cc1)C(=O)O | 100 (≈ 56.5 µg/mL) |  |  |  |
| O=C(O)C[C@@H](NC(=O)[C@@H](CC(=O)O)NC(=O)CCC(=O)OC[C@@H](NC(=O)C(Cl)Cl)[C@H](O)c1ccc([N+](=O)[O-])cc1)C(=O)O | > 200 |  |  |  |
| CC(C)C[C@@H](NC(=O)CNC(=O)CCC(=O)OC[C@@H](NC(=O)C(Cl)Cl)[C@H](O)c1ccc([N+](=O)[O-])cc1)C(=O)O | 20 (≈ 11.9 µg/mL) | Non-Toxic | Toxic |  |
| O=C(O)CNC(=O)CNC(=O)CNC(=O)CNC(=O)CNC(=O)CCC(=O)OC[C@@H](NC(=O)C(Cl)Cl)[C@H](O)c1ccc([N+](=O)[O-])cc1 (Dichloroacetyl-[X1]GGGGG-OH) | 40 (≈ 28.3 µg/mL) |  |  |  |
| NCCCC[C@@H](NC(=O)[C@@H](CCCCN)NC(=O)CCC(=O)OC[C@@H](NC(=O)C(Cl)Cl)[C@H](O)c1ccc([N+](=O)[O-])cc1)C(=O)O | 200 (≈ 136 µg/mL) |  |  | MIC [4]: 100 µM; MIC [5]: 200 µM (≈ 136 µg/mL); Drug metabolism [6]: Metabolite_Detected; Drug metabolism [7]: Metabolite_Detected; K [8]: 0.317 h⁻¹; Activity [9]: Active; Activity [10]: Active; Activity [11]: Active; Activity [12]: 20%; Activity [13]: inactive; Activity [14]: inactive; Activity [15]: inactive; Activity [16]: inactive; Activity [17]: inactive; Activity [18]: inactive; Activity [19]: inactive; Activity [20]: inactive; Drug metabolism [21]: Metabolite_Detected |
| C[C@@H](NC(=O)[C@@H](C)NC(=O)[C@@H](C)NC(=O)CCC(=O)OC[C@@H](NC(=O)C(Cl)Cl)[C@H](O)c1ccc([N+](=O)[O-])cc1)C(=O)O | 80 (≈ 50.9 µg/mL) |  |  |  |
| O=C(O)CNC(=O)CNC(=O)[C@@H](Cc1ccc2ccccc2c1)NC(=O)[C@@H](Cc1ccccc1)NC(=O)[C@@H](Cc1ccccc1)NC(=O)CCC(=O)OC[C@@H](NC(=O)C(Cl)Cl)[C@H](O)c1ccc([N+](=O)[O-])cc1 | > 200 |  |  |  |
| C[C@H](NC(=O)[C@H](C)NC(=O)[C@H](C)NC(=O)CCC(=O)OC[C@@H](NC(=O)C(Cl)Cl)[C@H](O)c1ccc([N+](=O)[O-])cc1)C(=O)O | 100 (≈ 63.6 µg/mL) |  |  |  |
| O=C(CCC(=O)OC[C@@H](NC(=O)C(Cl)Cl)[C@H](O)c1ccc([N+](=O)[O-])cc1)NCCOP(=O)(O)O | 100 (≈ 54.6 µg/mL) |  |  |  |
| COC(=O)CCC(=O)OC[C@@H](NC(=O)C(Cl)Cl)[C@H](O)c1ccc([N+](=O)[O-])cc1 | > 200 |  |  |  |
| C[C@@H](NC(=O)CCC(=O)OC[C@@H](NC(=O)C(Cl)Cl)[C@H](O)c1ccc([N+](=O)[O-])cc1)C(=O)O | > 200 |  |  |  |
| O=C(N[C@H](CO)[C@H](O)c1ccc([N+](=O)[O-])cc1)C(Cl)Cl [CHLORAMPHENICOL] | 20 (≈ 6.46 µg/mL) |  | Toxic |  |
| O=C(CCC(=O)OC[C@@H](NC(=O)C(Cl)Cl)[C@H](O)c1ccc([N+](=O)[O-])cc1)N[C@H](Cc1ccccc1)C(=O)N[C@H](Cc1ccccc1)C(=O)N[C@H](Cc1ccc2ccccc2c1)C(=O)O | > 200 |  |  |  |
| C[C@@H](NC(=O)CNC(=O)CCC(=O)OC[C@@H](NC(=O)C(Cl)Cl)[C@H](O)c1ccc([N+](=O)[O-])cc1)C(=O)O | 20 (≈ 11 µg/mL) | Non-Toxic | Toxic |  |

| Structure (SMILES) | MIC [1] [µM] | Activity [2] | Activity [3] | other results |
| --- | --- | --- | --- | --- |
| O=C(O)C[C@H](NC(=O)[C@H](CC(=O)O)NC(=O)CCC(=O)OC[C@@H](NC(=O)C(Cl)Cl)[C@H](O)c1ccc([N+](=O)[O-])cc1)C(=O)O | 200 (≈ 131 µg/mL) |  |  |  |
| O=C(O)CNC(=O)CNC(=O)CNC(=O)CNC(=O)CCC(=O)OC[C@@H](NC(=O)C(Cl)Cl)[C@H](O)c1ccc([N+](=O)[O-])cc1 (Dichloroacetyl-[X1]GGGG-OH) | 20 (≈ 13 µg/mL) | Non-Toxic | Toxic |  |
| O=C(O)CNC(=O)[C@@H](CO)NC(=O)CCC(=O)OC[C@@H](NC(=O)C(Cl)Cl)[C@H](O)c1ccc([N+](=O)[O-])cc1 | 40 (≈ 22.7 µg/mL) |  |  | MIC [4]: 40 µM; MIC [5]: 40 µM (≈ 22.7 µg/mL); Drug metabolism [6]: Metabolite_Detected; Drug metabolism [7]: Metabolite_Detected; K [8]: 1.267 h⁻¹; Activity [9]: Active; Activity [10]: Active; Activity [11]: Active; Activity [12]: 40%; Activity [13]: inactive; Activity [14]: inactive; Activity [15]: inactive; Activity [16]: inactive; Activity [17]: inactive; Activity [18]: inactive; Activity [19]: inactive; Activity [20]: inactive; Drug metabolism [21]: Metabolite_Detected |
| O=C(O)CC[C@@H](NC(=O)[C@@H](CCC(=O)O)NC(=O)CCC(=O)OC[C@@H](NC(=O)C(Cl)Cl)[C@H](O)c1ccc([N+](=O)[O-])cc1)C(=O)O | > 200 |  |  |  |
| O=C(CCC(=O)OC[C@@H](NC(=O)C(Cl)Cl)[C@H](O)c1ccc([N+](=O)[O-])cc1)NCC(=O)NCC(=O)N[C@@H](Cc1ccccc1)C(=O)N[C@@H](Cc1ccccc1)C(=O)O | 20 (≈ 16.6 µg/mL) | Non-Toxic | Toxic |  |
| O=C(O)CNC(=O)CNC(=O)[C@H](Cc1ccccc1)NC(=O)CCC(=O)OC[C@@H](NC(=O)C(Cl)Cl)[C@H](O)c1ccc([N+](=O)[O-])cc1 | 80 (≈ 54.8 µg/mL) |  |  |  |
| N=C(N)NCCC[C@@H](NC(=O)[C@@H](CCCNC(=N)N)NC(=O)[C@@H](Cc1ccccc1)NC(=O)[C@@H](Cc1ccccc1)NC(=O)CCC(=O)OC[C@@H](NC(=O)C(Cl)Cl)[C@H](O)c1ccc([N+](=O)[O-])cc1)C(=O)O | 200 (≈ 206 µg/mL) |  |  |  |
| O=C(CCC(=O)OC[C@@H](NC(=O)C(Cl)Cl)[C@H](O)c1ccc([N+](=O)[O-])cc1)N[C@H](Cc1ccccc1)C(=O)N[C@H](Cc1ccccc1)C(=O)O | 100 (≈ 71.8 µg/mL) |  |  |  |
| O=C(CCC(=O)OC[C@@H](NC(=O)C(Cl)Cl)[C@H](O)c1ccc([N+](=O)[O-])cc1)NCCS(=O)(=O)O | 40 (≈ 21.2 µg/mL) |  |  |  |
| O=C(O)CCC(=O)OC[C@@H](NC(=O)C(Cl)Cl)[C@H](O)c1ccc([N+](=O)[O-])cc1 [CHLORAMPHENICOL SUCCINIC ACID] | > 200 | Non-Toxic | Toxic |  |
| O=C(CCC(=O)OC[C@@H](NC(=O)C(Cl)Cl)[C@H](O)c1ccc([N+](=O)[O-])cc1)NCC(=O)NCC(=O)N[C@@H](Cc1ccccc1)C(=O)O | 20 (≈ 13.7 µg/mL) | Non-Toxic | Toxic |  |
| O=C(O)CNC(=O)[C@H](Cc1ccccc1)NC(=O)CNC(=O)CCC(=O)OC[C@@H](NC(=O)C(Cl)Cl)[C@H](O)c1ccc([N+](=O)[O-])cc1 | 20 (≈ 13.7 µg/mL) | Non-Toxic | Toxic |  |
| C[C@@H](NC(=O)[C@@H](C)NC(=O)CCC(=O)OC[C@@H](NC(=O)C(Cl)Cl)[C@H](O)c1ccc([N+](=O)[O-])cc1)C(=O)O | 80 (≈ 45.2 µg/mL) |  |  |  |
| O=C(O)C[C@H](NC(=O)CNC(=O)CCC(=O)OC[C@@H](NC(=O)C(Cl)Cl)[C@H](O)c1ccc([N+](=O)[O-])cc1)C(=O)O | 20 (≈ 11.9 µg/mL) | Non-Toxic | Toxic |  |
| O=C(CCC(=O)OC[C@@H](NC(=O)C(Cl)Cl)[C@H](O)c1ccc([N+](=O)[O-])cc1)NCC(=O)NCC(=O)N[C@H](Cc1ccccc1)C(=O)N[C@H](Cc1ccccc1)C(=O)O | 20 (≈ 16.6 µg/mL) | Non-Toxic | Toxic | Drug metabolism [21]: Metabolite_Detected |
| N=C(N)NCCC[C@@H](NC(=O)[C@@H](CCCNC(=N)N)NC(=O)CCC(=O)OC[C@@H](NC(=O)C(Cl)Cl)[C@H](O)c1ccc([N+](=O)[O-])cc1)C(=O)O | 200 (≈ 147 µg/mL) |  |  |  |
